US6872749B2, “Method for supplying bioavailable methionine to a cow” (Adisseo Ireland Limited, priority 1998, dated 2005)
Like-named read-outs stand apart in the source and are kept apart here.

Experiments:
[1] = in vivo; details: bovine
Protocol: The kinetics of availability of methionine and HMB in the bloodstream were determined for the isopropyl ester of the hydroxy analogue of methionine and compared with the hydroxy analogue of methionine (a compound not according to the present invention).
The procedure of Example 2 was repeated wherein samples of the isopropyl ester of the hydroxy analogue (69 g) and the hydroxy analogue (Alimet™-57 g) were given to four cows.

[2] = dose of methionine equivalent to 50 g per day per cow; cited from earlier work
[3] = incubation for six hours in rumen juices; cited from earlier work
[4] = bovine, in vivo
Protocol: Spot doses of the following amounts of the esters prepared as detailed above, equating to 50 g of methionine equivalent, were given to 2 cows in the manner described in Example 2(b1) above. • methyl ester of HMB: 64.8 g • ethyl ester of HMB: 74.8 g • isopropyl ester of HMB: 80.5 g • n-butyl ester of HMB: 96 g • cyclohexyl ester of HMB: 97.5 g • see butyl ester of HMB: 79 g The concentration of methionine and HMB was measured over a period of 27 hours.
56 g of methyl methioninate and 72 g of n-propyl methioninate (providing an equivalent 50 g of DL-methionine), prepared as detailed above, were supplied to two cows as a spot dose at 7.45 am just before the morning feed.
The ration given to the cows was distributed as two equal meals at 08.00 hours and 16.00 hours comprised 7 kg of hay and 2 kg concentrate.
Samples of blood were taken by jugular vein puncture 09.00, 10.00, 11.00, 13.00 and 15.00 hours on the day where the ester was given to the animal and at 09.00, 12.00 and 15.00 hours on the day before and two days after supply.
The plasma from each sample was isolated from the blood samples by centrifuging the blood at 3000 revs per minute for 10 minutes. The samples were stored in a freezer. The assay for methionine was carried out according to the standard procedure of Moore and Stein.
The results were plotted using the conventional AUC method wherein the areas under the curves are calculated to obtain the bioavailability values for each ester.

[5] = test system: cows; assay: Milk production of dairy cows given ester supplement (Examples 4 and 6); type: in vivo, cow; details: for Butter Content of Milk / Daily amount of milk / Protein content of Milk: supplement providing 12.5 g of bioavailable methionine per animal per day, 16 cows; for Effect of addition to the diet on milk composition: versus control, Table 5
Description: The isopropyl ester of the hydroxy analogue of methionine was given to 16 cows over a period of 8 weeks. Each cow was given daily corn silage and a supplement to cover 100% of requirement and a 115% PDIE (protein digestible in the intestine) requirement.
The supplements were given to the cows according to the following schedule: […]

[6] = Bioavailability of esters of methionine after spot dose to cows (Example 2); type: in vivo, cow; details: bovine, in vivo
Protocol: The bioavailability of the esters was evaluated.
The samples were stored in a freezer.
The procedure of (b1) was repeated using 72 g of methionine ethyl ester hydrochloride, prepared as detailed above
• cyclohexyl methioninate: 122 g • methionine methyl ester hydrochloride: 73 g • sec butyl methioninate: 72 g

## CSCCC(O)C(=O)O (centres unmarked) [HMB, 2-hydroxy-4-(methylthio) butanoic acid]
[1]; 0 min
  Blood plasma HMB concentration: 0.00 mg/100 g of plasma
[1]; 10 min
  Blood plasma HMB concentration: 0.00 mg/100 g of plasma
[1]; 20 min
  Blood plasma HMB concentration: 0.00 mg/100 g of plasma
[1]; 30 min
  Blood plasma HMB concentration: 0.00 mg/100 g of plasma
[1]; 40 min
  Blood plasma HMB concentration: 0.00 mg/100 g of plasma
[1]; 50 min
  Blood plasma HMB concentration: 0.00 mg/100 g of plasma
[1]; 60 min
  Blood plasma HMB concentration: 0.00 mg/100 g of plasma
[1]; 75 min
  Blood plasma HMB concentration: 0.00 mg/100 g of plasma
[1]; 90 min
  Blood plasma HMB concentration: 0.00 mg/100 g of plasma
[1]; Blood plasma HMB concentration
  concentration at 0 min: 0 ng/g
  concentration at 10 min: 0 ng/g
  concentration at 20 min: 0 ng/g
  concentration at 30 min: 0 ng/g
  concentration at 40 min: 0 ng/g
  concentration at 50 min: 0 ng/g
  concentration at 60 min: 0 ng/g
  concentration at 75 min: 0 ng/g
  concentration at 90 min: 0 ng/g
[2]
  Bioavailability: 3%
[3]
  amount remaining after incubation in rumen juices: 85%

## CSCCC(O)C(=O)OC(C)C (centres unmarked) [Isopropyl ester of HMB, isopropyl ester of the hydroxy analogue of methionine]
[4]
  Bioavailability: 59%
  appearance of the bioavailability peak in the blood following administration: relatively quickly
  bioavailability of methionine: more than 50%
  methionine equivalent provided to the bloodstream by absorption across the rumen wall: at least 50%
[1]
  Blood plasma HMB concentration: 0.00 mg/100 g of plasma
  Speed of providing methionine and HMB to the bloodstream: much quicker than HMB itself
[5]
  Butter Content of Milk: 44.3 g/kg
  Daily amount of milk: 32.3 kg/cow
  Protein content of Milk: 30.8 g/kg
  Effect of addition to the diet on milk composition: higher fat content and higher protein content

## CSCC[C@H](N)C(=O)OC(C)C [Isopropyl methioninate, isopropyl methioninate]
[6]; 0 h
  [met] methionine concentration in blood plasma: 0.33 mg/100 g of blood plasma
[6]; 1 h
  [met] methionine concentration in blood plasma: 3.62 mg/100 g of blood plasma
[6]; 2 h
  [met] methionine concentration in blood plasma: 3.21 mg/100 g of blood plasma
[6]; 3 h
  [met] methionine concentration in blood plasma: 2.86 mg/100 g of blood plasma
[6]; 5 h
  [met] methionine concentration in blood plasma: 2.22 mg/100 g of blood plasma
[6]; 7 h
  [met] methionine concentration in blood plasma: 1.93 mg/100 g of blood plasma
[6]; 28 h
  [met] methionine concentration in blood plasma: 0.35 mg/100 g of blood plasma
[6]; po
  Bioavailability %: 44%
[5]
  Butter Content of Milk: 43.3 g/kg
  Daily amount of milk: 32.7 kg/cow
  Protein content of Milk: 30.6 g/kg
  Effect of addition to the diet on milk composition: higher fat content and higher protein content

## COC(=O)C(O)CCSC (centres unmarked) [Methyl ester of HMB, methyl ester of HMB]
[4]
  Bioavailability: 39%
[3]
  amount remaining after incubation in rumen juices: 1.8%

## CCC(C)OC(=O)C(O)CCSC (centres unmarked) [Sec butyl ester of HMB]
[4]
  Bioavailability: 31%

## CSCCC(O)C(=O)OC1CCCCC1 (centres unmarked) [cyclohexyl ester of HMB]
[4]
  Bioavailability: 20%

## CCOC(=O)C(O)CCSC (centres unmarked) [ethyl ester of HMB]
[4]
  Bioavailability: 35%
[3]
  amount remaining after incubation in rumen juices: 3%

## CSCC[C@H](N)C(=O)O [methionine]
[3]
  amount remaining after incubation in rumen juices: 34%

## CCCCOC(=O)C(O)CCSC (centres unmarked) [n-butyl ester of HMB]
[4]
  Bioavailability: 17%
